Measured values from patent US12357603B2, “Acyl sulfonamides for treating cancer” (Bayer Aktiengesellschaft, priority 2019, dated 2025).

Assays:
[1] = target: Recombinant human His-tagged Kat6a protein (amino acids 194-810) (Homo sapiens (Human), UniProt Q92794); assay: Kat6a activity assay (TR-FRET, acetylation of biotinylated Histone-H4-derived peptide); format: biochemical; settings: 60 mins at 22° C., read-out: KAT6A-DPF/HAT domain IC50 [mol/l] (arithmetic mean)
Outline: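 TR-FRET read-out of H4 K8 acetylation, using anti-acetyl-K8 antibody and streptavidin acceptor, after anacardic acid stop; IC50 from four-parameter regression normalized to DMSO. Reaction: recombinant human Kat6a aa 194-810 (insect-cell derived), 220 nM H4 1-24 peptide, 600 nM acetyl-CoA, pH 8, 22 °C, 60 min, compounds 0.01-20 μM.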

[2] = tested on: ESR1 transcription (luciferase signal in MVLN cells); assay: Repression of ESR1 transcription, luciferase reporter in MVLN cells; format: cell-based; settings: Homo sapiens, MVLN, inhibition of luciferase signal in MVLN cells; arithmetic mean
Outline: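 Luminescence from an ER-driven Vitellogenin A2 element–luciferase reporter was measured after 24 h of treatment of MVLN cells, in duplicate wells. Alamar Blue (2 h, 530/590 nm) served as a cell-density control.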

ZR-75-1 cells = assay: Proliferation assay ZR-75-1 (Alamar Blue, 144 h); format: cell-based; settings: Homo sapiens, ZR-75-1, 144 h, arithmetic mean, read-out: ZR75-1 proliferation assay, EC50 [M] (arithmetic mean)
Outline: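 Alamar Blue fluorescence (590 nm, 2 h reagent step) measured viability after 144 h compound exposure at 37 °C, 5% CO2. Compounds spanned 2.0×10E-5 to 2.0×10E-9 M in 9 dilutions at 0.2% DMSO, in triplicate, added 24 h after plating 3000 cells/well in RPMI 1640 plus 2.5% FBS.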

MDA-MB-436 cells = assay: Proliferation assay MDA-MB-436, negative control cell line (Alamar Blue, 144 h); format: cell-based; settings: Homo sapiens, MDA-MB-436, 144 h, arithmetic mean
Outline: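 Viability read as Alamar Blue fluorescence (590 nm, 2 h) after 144 h compound exposure at 37 °C, 5% CO2. Cells seeded at 3000 per well in 2.5% FBS DMEM/Ham's F12, dosed a day later over 2.0×10E-9–2.0×10E-5 M in 9 steps with 0.2% DMSO, in triplicate.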

Sequence of Recombinant human His-tagged Kat6a protein (amino acids 194-810) (Q92794 194-810): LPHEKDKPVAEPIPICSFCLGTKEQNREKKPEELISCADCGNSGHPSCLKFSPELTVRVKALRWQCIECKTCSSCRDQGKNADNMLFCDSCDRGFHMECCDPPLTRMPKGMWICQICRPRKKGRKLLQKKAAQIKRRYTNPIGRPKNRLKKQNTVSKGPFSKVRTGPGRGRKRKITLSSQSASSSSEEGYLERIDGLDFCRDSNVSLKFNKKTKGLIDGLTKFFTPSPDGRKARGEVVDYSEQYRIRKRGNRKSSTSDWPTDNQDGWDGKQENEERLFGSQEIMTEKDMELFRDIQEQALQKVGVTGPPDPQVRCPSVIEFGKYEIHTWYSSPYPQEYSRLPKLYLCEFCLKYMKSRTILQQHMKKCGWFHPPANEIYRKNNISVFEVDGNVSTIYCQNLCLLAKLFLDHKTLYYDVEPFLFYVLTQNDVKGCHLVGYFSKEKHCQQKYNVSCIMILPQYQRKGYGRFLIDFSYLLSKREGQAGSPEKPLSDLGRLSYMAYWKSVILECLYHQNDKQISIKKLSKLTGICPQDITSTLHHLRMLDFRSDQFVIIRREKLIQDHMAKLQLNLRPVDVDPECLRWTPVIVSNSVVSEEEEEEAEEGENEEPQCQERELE

Compound	IC50 [1] [µM]	IC50 [2] [µM]	EC50 (MDA-MB-436 cells) [µM]	EC50 (ZR-75-1 cells) [M]
Cc1ccc2cccc(S(=O)(=O)NC(=O)c3cc4cc(Cl)c(N(C)C)cc4o3)c2n1 [Example 187, 5-Chloro-6-(dimethylamino)-N-((2-methylquinolin-8-yl)sulfonyl)benzofuran-2-carboxamide]	6.64	> 20	> 20	> 2e-05
CCOc1ccccc1S(=O)(=O)NC(=O)c1cc2cc(Cl)c(N(C)C)cc2o1 [Example 188, 5-Chloro-6-(dimethylamino)-N-((2-ethoxyphenyl)sulfonyl)benzofuran-2-carboxamide]	10.3	> 20	> 20	> 2e-05
CN(C)c1cc2oc(C(=O)NS(=O)(=O)c3ccccc3-c3ccccc3)cc2cc1Cl [Example 189, N-([1,1′-biphenyl]-2-ylsulfonyl)-5-chloro-6-(dimethylamino)benzofuran-2-carboxamide]	2.44	6.48	> 20	> 2e-05
Cc1ccc2cccc(S(=O)(=O)NC(=O)c3cc4ccc(N(C)C)c(F)c4o3)c2n1 [Example 190, 6-(Dimethylamino)-7-fluoro-N-((2-methylquinolin-8-yl)sulfonyl)benzofuran-2-carboxamide]	1.4	1.93	10.4	3.3e-06
CCOc1ccccc1S(=O)(=O)NC(=O)c1cc2ccc(N(C)C)c(F)c2o1 [Example 191, 6-(Dimethylamino)-N-((2-ethoxyphenyl)sulfonyl)-7-fluorobenzofuran-2-carboxamide]	4.7	11.2	> 20	5.64e-06
CN(C)c1ccc2cc(C(=O)NS(=O)(=O)c3ccccc3-c3ccccc3)oc2c1F [Example 192, N-([1,1′-biphenyl]-2-ylsulfonyl)-6-(dimethylamino)-7-fluorobenzofuran-2-carboxamide]	2.98	16.4	> 20	> 2e-05
Cc1ccc2cccc(S(=O)(=O)NC(=O)c3cc4cc(F)c(N(C)C)cc4o3)c2n1 [Example 197, 6-(Dimethylamino)-5-fluoro-N-((2-methylquinolin-8-yl)sulfonyl)benzofuran-2-carboxamide]	0.894	1.27	> 20	2.84e-06
CCOc1ccccc1S(=O)(=O)NC(=O)c1cc2cc(F)c(N(C)C)cc2o1 [Example 198, 6-(Dimethylamino)-N-((2-ethoxyphenyl)sulfonyl)-5-fluorobenzofuran-2-carboxamide]	4.06	2.32	> 20	7.2e-06
CN(C)c1cc2oc(C(=O)NS(=O)(=O)c3ccccc3-c3ccccc3)cc2cc1F [Example 199, N-([1,1′-biphenyl]-2-ylsulfonyl)-6-(dimethylamino)-5-fluorobenzofuran-2-carboxamide]	2.65	9.4	> 20	> 2e-05
CCOc1ccccc1S(=O)(=O)NC(=O)c1cc2cc(C)c(N(C)C)cc2o1 [Example 200, 6-(Dimethylamino)-N-(2-ethoxybenzene-1-sulfonyl)-5-methyl-1-benzofuran-2-carboxamide]	6.74	> 20	> 20	> 2e-05
CN(C)c1ccc2cc(C(=O)NS(=O)(=O)c3ccccc3-c3ccccc3)oc2c1Br [Example 203, N-([1,1′-biphenyl]-2-sulfonyl)-7-bromo-6-(dimethylamino)-1-benzofuran-2-carboxamide]	8.38	> 20	> 20	> 2e-05
CCOc1ccccc1S(=O)(=O)NC(=O)c1cc2cc(C#N)c(N(C)C)cc2o1 [Example 204, 5-Cyano-6-(dimethylamino)-N-(2-ethoxybenzene-1-sulfonyl)-1-benzofuran-2-carboxamide]	2.59	5.8	> 20	6.4e-06
COCCN(C)c1ccc2cc(C(=O)NS(=O)(=O)c3cccc4ccc(C)nc34)oc2c1 [Example 205, 6-[(2-Methoxyethyl)(methyl)amino]-N-(2-methylquinoline-8-sulfonyl)-1-benzofuran-2-carboxamide]	0.485	2.34	7.61	2.17e-06
CN(C)c1cc2oc(C(=O)NS(=O)(=O)c3ccccc3OC3CC3)cc2cc1Br [Example 207, 5-Bromo-N-[2-(cyclopropyloxy)benzene-1-sulfonyl]-6-(dimethylamino)-1-benzofuran-2-carboxamide]	6.81	11.8	> 20	> 2e-05
CCNc1ccc2cc(C(=O)NS(=O)(=O)c3ccccc3OCC)oc2c1 [Example 212, N-(2-Ethoxybenzene-1-sulfonyl)-6-(ethylamino)-1-benzofuran-2-carboxamide]	1.13	9.28	> 20	4.19e-06
COCCN(C)c1ccc2cc(C(=O)NS(=O)(=O)c3ccc(C)cc3-c3ccccc3)oc2c1 [Example 214, 6-[(2-Methoxyethyl)(methyl)amino]-N-(5-methyl[1,1′-biphenyl]-2-sulfonyl)-1-benzofuran-2-carboxamide]	0.732	5.53	> 20	6.14e-06
CCOc1ccccc1S(=O)(=O)NC(=O)c1cc2ccc(N(C)CCOC)cc2o1 [Example 215, N-(2-Ethoxybenzene-1-sulfonyl)-6-[(2-methoxyethyl)(methyl)amino]-1-benzofuran-2-carboxamide]	2.66	11.8	> 20	1.01e-05
Cc1ccc2cccc(S(=O)(=O)NC(=O)c3cc4cc(Br)c(N(C)C)cc4o3)c2n1 [Example 216, 5-Bromo-6-(dimethylamino)-N-(2-methylquinoline-8-sulfonyl)-1-benzofuran-2-carboxamide]	2.05	> 20	> 20	> 2e-05

Compounds with a lower IC50 [1], results first:

IC50 [1] [µM]	IC50 [2] [µM]	EC50 (MDA-MB-436 cells) [µM]	Compound	EC50 (ZR-75-1 cells) [M]
0.35	4.84	> 20	CCNc1ccc2cc(C(=O)NS(=O)(=O)c3ccccc3-c3ccccc3)oc2c1 [Example 211, N-([1,1′-biphenyl]-2-sulfonyl)-6-(ethylamino)-1-benzofuran-2-carboxamide]	1.21e-06
0.128	8.6	> 20	CN(C)c1ccc2cc(C(=O)NS(=O)(=O)c3ccccc3OCCOCCOCCOCCNc3ccc([N+](=O)[O-])c4nonc34)oc2c1 [Example 168, 6-(Dimethylamino)-N-(2-{2-[2-(2-{2-[(7-nitro-2,1,3-benzoxadiazol-4-yl)amino]ethoxy}ethoxy)ethoxy]ethoxy}benzene-1-sulfonyl)-1-benzofuran-2-carboxamide]	1.24e-05
0.0973	0.0674	> 20	CCOc1ccc(F)cc1S(=O)(=O)NC(=O)c1cc2ccc(N(C)C)cc2o1 [Example 173, 6-(Dimethylamino)-N-(2-ethoxy-5-fluoro-phenyl)sulfonyl-benzofuran-2-carboxamide]	1.1e-07
0.054	0.0723	> 20	CCOc1ccc(C(F)(F)F)cc1S(=O)(=O)NC(=O)c1cc2ccc(N(C)C)cc2o1 [Example 172, 6-(Dimethylamino)-N-[2-ethoxy-5-(trifluoromethyl)phenyl]sulfonyl-benzofuran-2-carboxamide]	8.08e-08
0.0449	4.09	> 20	CN(C)c1cc(C(F)(F)F)c2cc(C(=O)NS(=O)(=O)c3ccccc3)oc2c1 [Example 194, 6-(Dimethylamino)-N-(phenylsulfonyl)-4-(trifluoromethyl)benzofuran-2-carboxamide]	1.12e-06
0.0154	0.0455	> 20	CC(C)Oc1ccc(C(C)(C)C)cc1S(=O)(=O)NC(=O)c1cc2ccc(N(C)C)cc2o1 [Example 183, N-((5-(tert-butyl)-2-isopropoxyphenyl)sulfonyl)-6-(dimethylamino)benzofuran-2-carboxamide]	7.53e-08
0.0128	0.0348	19.5	CC(C)c1ccc(OCc2ccccc2)c(S(=O)(=O)NC(=O)c2cc3ccc(N(C)C)cc3o2)c1 [Example 176, N-(2-Benzyloxy-5-isopropyl-phenyl)sulfonyl-6-(dimethylamino)benzofuran-2-carboxamide]	9.71e-08
0.011	0.0696	> 20	CC(C)c1ccc(OCC(F)(F)F)c(S(=O)(=O)NC(=O)c2cc3ccc(N(C)C)cc3o2)c1 [Example 178, 6-(Dimethylamino)-N-[5-isopropyl-2-(2,2,2-trifluoroethoxy)phenyl]sulfonyl-benzofuran-2-carboxamide]	8.65e-08
